Experimental data reported in patent US9597324B2, “Treatment of CNS disorders associated with mutations in genes encoding lysosomal enzymes” (Amicus Therapeutics, Inc., priority 2005, dated 2017).

Legend:
human L444P mutated Gba = assay: Gba activity in brain and organs of L444P transgenic mice treated with chaperone in drinking water (incl. washout study); assay type: in vivo, mouse; details: for Gba activity in brain: about 10 mg/kg/day in drinking water
Procedure: L444P is a mutation associated with Types 2 and 3 Gaucher disease. […] Concomitant glucosylceramide synthase disruption is necessary, since previously made L444P transgenic mice died within 3 days of birth due to impaired permeability barrier function in the epidermis.
In addition, mice in a “washout” period of 2 weeks of non-chaperone treatment following 4 weeks of treatment were also evaluated for reversion of surrogate markers back to levels seen in untreated controls.
Mice were administered isofagomine or C-benzyl-isofagomine in their drinking water, ad libitum. Estimated daily dosage based on the volume of water consumed is about 10 mg/kg/day.
[…] Brian tissue is freshly harvested (blood washed away with PBS), or thawed from frozen stock. Tissue is minced tissue and homogenized on ice in 200-500 μl McIlvaine (MI) buffer (0.25% sodium taurocholate, 0.1% Triton x-100 in 0.1M citrate and 0.2M phosphate buffer, pH 5.2), and centrifuged at 10,000×g. The supernatant is collected and may be frozen at this step.
About 1-10 μl of supernatant from the brain tissue homogenates is added to a clear 96-well plate for the Micro BCA Protein Assay (Pierce, cat #23235) to quantitate the amount of total protein according to the manufacturer's protocol. As a negative control, another 10 μl is added to a black plate, mixed with 10 μl of 2.5 mM CBE (2.7 mg Conduritol B Epoxide in 6.7 ml buffer), an inhibitor of Gba activity, and left at room temperature (RT) for 30 minutes. 50 μl of 3 mM 4-methal Umbelliferal beta-D-glucoside (4-MU-beta-D-glucoside; made fresh, powder is dissolved in 0.2 ml of DMSO, then q.s. to proper volume with MI buffer), a Gba substrate, is then added, and the black plate is further incubated at 37° C. for 1 hr. After incubation, 10 μl of supernatant is added to a second black plate, mixed with 10 μl of MI buffer and 50 μl […] of Gba substrate 4-MU-beta-D-glucoside, and incubated at 37° C. for 1 hr. The reaction is then stopped by adding 70 μl 0.2 M glycine, pH 10.8. The plate is read in a plate-reader (Victor2 1420 multilabel counter; Wallac) at F460.
Relative […] is determined by the following equation: F460 without CBE−F460 with CBE)/(A550 sample−A550 buffer)
F460 reading is converted into nmole 4-MU based on 4-MU standard curve and A550 is converted into mg of protein based on the protein standard curve. One unit of Gba activity is defined as nmole of 4-MU released in one hour.
To determine if and in what time frame the effects of drinking water dosed AT2101 on L444P mice regress after cessation of the treatment, a washout study was performed. Nine male 3 month old L444P mice were dosed at about 10 mg/kg/day for 4 weeks with an equal number of mice untreated as a control.

[1] = system: N370S Gaucher fibroblasts (DMN89.15); assay: Gba / LAMP-1 lysosomal staining (confocal microscopy) in N370S Gaucher fibroblasts; assay type: cell-based, human; details: for Gba staining localization: N370S Gaucher fibroblasts; for Amount of Gba in the lysosomes: dual Gba/LAMP-1 staining vs untreated control; for Lysosome staining pattern for Gba and LAMP-1: dual staining vs untreated control
Procedure: N370S fibroblasts (DMN89.15) were cultured in DMEM with 10% FBS and 1% penn/strep at 37 C with […]. Wild-type fibroblast cell line CRL-2097 form a healthy individual was used as a control. Cells were sub-cultured from 10 cm plates into 12-well plates with cover slips. Cells from one confluent 10 cm plate were diluted in 38 ml of culture medium.
C-benzyl-isofagomine-control (secondary antibody only); untreated; 0.03 μM; 0.1 μM; 0.3 μM; 1.0 μM; 3.0 μM; and 10.0 μM.
Isofagomine-control (secondary antibody only); untreated; 10 μM; 30 μM; 100 μM; 1 nM; 3 nM; and 10 nM.
Cells were cultured for a total of about 6 days.
Cells were washed for 5 minutes in PBS, fixed for 15 minutes in 3.7% paraformaldahyde (in PBS), washed again for 5 minutes in PBS, and permeabilized with 0.5% saponin for 5 minutes. Cells were then washed with PBS containing 0.1% saponin, treated for 5 minutes with fresh 0.1% sodium borohydride/0.01% saponin, and washed 3 times with PBS with 0.1% saponin/1% BSA for 5 minutes each.
Cells were incubated for 1 h with 500 μl of primary anti-Gba (1:200) or anti-LAMP-1 (1:200; BD Pharmingen, Cat. No. 555798) antibody solution in PBS with 1% BSA. Lysosomal staining using LysoTracker® Red (Cambrex, East Rutherford, N.J.) was performed according to the manufacturer's instructions. Following incubation, cells were washed 3 times in 1% BSA containing 0.1% saponin in PBS, followed by incubation with the secondary antibody solution (1:500; anti-rabbit […] for anti-Gba and anti-mouse IgG AlexaFluor594 for anti-LAMP-1). Cells were mounted onto coverslips, sealed, and immediately viewed.
Cells were visualized using a confocal microscope. The red and green channel gains were set to 6 and the laser power was optimized using the intensity window, and were not adjusted for the rest of the experiment. All slides were analyzed at the same sitting and all images were gathered without any zoom using the 20× and 60× lens, the small pinhole, optimal pixel size, an average of 2 scans, and red and green channels were acquired simultaneously as in all previous experiments.

[2] = molecular target: T1, human mutant α-Gal A (R301Q) (Homo sapiens, UniProt P06280, R301Q); details: neutral pH; cited from earlier work
T1 sequence (P06280 32-429 R301Q): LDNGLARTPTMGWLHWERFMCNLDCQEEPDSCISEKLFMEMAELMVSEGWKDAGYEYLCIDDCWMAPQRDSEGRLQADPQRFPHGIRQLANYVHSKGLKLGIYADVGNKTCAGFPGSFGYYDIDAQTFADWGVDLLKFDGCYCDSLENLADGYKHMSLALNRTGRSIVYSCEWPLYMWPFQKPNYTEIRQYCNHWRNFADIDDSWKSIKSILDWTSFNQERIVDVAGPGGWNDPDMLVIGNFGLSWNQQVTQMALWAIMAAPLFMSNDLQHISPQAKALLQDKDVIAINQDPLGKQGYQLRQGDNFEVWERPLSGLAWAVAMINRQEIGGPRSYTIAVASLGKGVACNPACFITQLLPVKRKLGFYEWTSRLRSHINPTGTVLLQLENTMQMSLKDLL

[3] = system: lymphoblasts established from Fabry patients with R301Q or Q279E mutations; details: cited from earlier work
mutant (R301Q) α-Gal A = molecular target: T2, mutant (R301Q) α-Gal A (Homo sapiens, UniProt P06280, R301Q); details: oral administration, transgenic mice overexpressing mutant (R301Q) α-Gal A; cited from earlier work
T2 construct: host or cells: major organs of transgenic mice
T2 sequence (P06280 32-429 R301Q): T1 sequence (P06280 32-429 R301Q)

[4] = Detection of IFG in the CSF of treated monkeys; assay type: in vivo
Gaucher patient cells = details: cited from earlier work
[5] = after two weeks of treatment, data not shown
[6] = N370S fibroblasts, 3.0 μl (so in the source)
[7] = N370S fibroblasts, concentration not given

OCC1C(Cc2ccccc2)NCC(O)[C@@H]1O (stereo partly shown) [C-benzyl-isofagomine]
Gba activity in brain (in words) (human L444P mutated Gba; [5]): trend toward increased activity | Gba activity in lung (in words) (human L444P mutated Gba; [5]): trend toward increased activity | Gba activity in spleen (in words) (human L444P mutated Gba; [5]): significant increased | Gba activity in brain (in words) (human L444P mutated Gba; after two weeks of treatment, data not shown, listed as AT2206): trend toward increase | Gba staining localization ([1]; 3 μM, Gba staining only (FIG. 2N)): localize to lysosomes | Amount of Gba in the lysosomes [1, 6]: increased | Lysosome staining pattern for Gba and LAMP-1 [1, 6]: re-established a normal lysosome punctuate staining pattern

OC[C@H]1NC[C@H](O)[C@@H](O)[C@H]1O [DGJ, 1-deoxygalactonojirimycin]
In vitro stability of the mutant enzyme [2]: effectively increased | Mutant enzyme activity in lymphoblasts [3]: enhanced | Enzyme activity in major organs (mutant (R301Q) α-Gal A): substantially elevated

OC[C@H]1CNC[C@@H](O)[C@@H]1O [isofagomine, (3R,4R,5R)-5-(hydroxymethyl)-3,4-piperidinediol]
Gba activity in brain (human L444P mutated Gba; after 2 weeks of treatment, untreated about 1 U/mg): about 4.5 U/mg | Gba activity in brain (human L444P mutated Gba; after 4 weeks of treatment, untreated about 1 U/mg): about 4.5 U/mg | Gba activity in brain (human L444P mutated Gba; after 12 weeks of treatment, p<0.001): about 6 U/mg | Gba activity in brain, washout study (in words) (human L444P mutated Gba; after 4 weeks of treatment at 10 mg/kg/day (FIG. 1B)): significantly elevated | Gba activity in brain (in words) (human L444P mutated Gba; after as little as two weeks of treatment, persisted through 4-12 weeks (FIG. 1A)): Significant increase | Detection in the CSF following treatment [4]: detected | Gba staining localization ([1]; 30 μM, Gba staining only (FIG. 2M)): localize to lysosomes | Amount of Gba in the lysosomes ([1]; N370S fibroblasts, 30.0 μM): increased | Lysosome staining pattern for Gba and LAMP-1 ([1]; N370S fibroblasts, 30.0 μM): re-established a normal lysosome punctuate staining pattern | Amount of Gba seen in the lysosome [1, 7]: increased | Lysosomal staining pattern of the cells [1, 7]: restored a normal lysosomal staining pattern | Rescue of Gba (Gaucher patient cells): rescue
